Laboratory results: ChEMBL document CHEMBL1141575, “Preparation and in vitro biological evaluation of tetrapyrrole ethanolamide derivatives as potential anticancer agents” (Bioorg Med Chem Lett, 2008)

Key:
[1] = tested on: HeLa; assay: Survival of human HeLa cells at 0.1 uM under deem light after 96 hrs by MTT assay relative to control; format: functional; conditions: read-out: Survival
[2] = tested on: HeLa; assay: Survival of human HeLa cells at 50 uM under deem light after 96 hrs by MTT assay relative to control; format: functional; conditions: read-out: Survival
[3] = tested on: HeLa; assay: Survival of human HeLa cells at 100 uM under deem light after 96 hrs by MTT assay relative to control; format: functional; conditions: read-out: Survival
[4] = tested on: NCI-H69; assay: Survival of human H69 cells at 0.1 uM under deem light after 96 hrs by MTT assay relative to control; format: functional; conditions: NCI-H69, 96 h, read-out: Survival
[5] = tested on: NCI-H69; assay: Survival of human H69 cells at 50 uM under deem light after 96 hrs by MTT assay relative to control; format: functional; conditions: NCI-H69, 96 h, read-out: Survival
[6] = tested on: NCI-H69; assay: Survival of human H69 cells at 100 uM under deem light after 96 hrs by MTT assay relative to control; format: functional; conditions: NCI-H69, 96 h, read-out: Survival
[7] = Survival of human H209 cells at 0.1 uM under deem light after 96 hrs by MTT assay relative to control; format: functional; conditions: NCI-H209, 96 h, read-out: Survival
[8] = Survival of human H209 cells at 50 uM under deem light after 96 hrs by MTT assay relative to control; format: functional; conditions: NCI-H209, 96 h, read-out: Survival
[9] = Survival of human H209 cells at 100 uM under deem light after 96 hrs by MTT assay relative to control; format: functional; conditions: NCI-H209, 96 h, read-out: Survival
[10] = Survival of human 2780.9S cells at 0.1 uM under deem light after 96 hrs by MTT assay relative to control; format: functional; conditions: read-out: Survival
[11] = Survival of human 2780.9S cells at 50 uM under deem light after 96 hrs by MTT assay relative to control; format: functional; conditions: read-out: Survival
[12] = Survival of human 2780.9S cells at 100 uM under deem light after 96 hrs by MTT assay relative to control; format: functional; conditions: read-out: Survival
[13] = Survival of human MDA-MB cells at 0.1 uM under deem light after 96 hrs by MTT assay relative to control; format: functional; conditions: read-out: Survival
[14] = Survival of human MDA-MB cells at 10 uM under deem light after 96 hrs by MTT assay relative to control; format: functional; conditions: read-out: Survival
[15] = Survival of human MDA-MB cells at 50 uM under deem light after 96 hrs by MTT assay relative to control; format: functional; conditions: read-out: Survival
[16] = Survival of human MDA-MB cells at 100 uM under deem light after 96 hrs by MTT assay relative to control; format: functional; conditions: read-out: Survival
[17] = tested on: SiHa; assay: Cytotoxicity against human SIHA cells under deem light after 96 hrs by MTT assay; format: functional, cell-based
[18] = tested on: Raji; assay: Cytotoxicity against human Raji cells under deem light after 96 hrs by MTT assay; format: functional, cell-based
[19] = Cytotoxicity against human MDA-MB cells under deem light after 96 hrs by MTT assay; format: functional, cell-based
[20] = tested on: K562; assay: Cytotoxicity against human K562 cells under deem light after 96 hrs by MTT assay; format: functional, cell-based; conditions: K562, 96 h
[21] = tested on: HeLa; assay: Cytotoxicity against human HeLa cells under deem light after 96 hrs by MTT assay; format: functional, cell-based
[22] = tested on: NCI-H69; assay: Cytotoxicity against human H69 cells under deem light after 96 hrs by MTT assay; format: functional, cell-based; conditions: NCI-H69, 96 h
[23] = tested on: Daudi; assay: Cytotoxicity against human Daudi cells under deem light after 96 hrs by MTT assay; format: functional, cell-based
[24] = Cytotoxicity against human 2780.9S cells under deem light after 96 hrs by MTT assay; format: functional, cell-based
[25] = Photohemolysis in human RBC in absence of light; format: ADME, cell-based; conditions: erythrocyte
[26] = Photohemolysis in human RBC at 125 nM under exposure to light for 10 mins; format: ADME, cell-based, Erythrocyte; conditions: human red blood cells, read-out: Activity
[27] = Photohemolysis in human RBC assessed as concentration required to 50% hemolysis under light exposure for 5 mins; format: ADME, cell-based, Erythrocyte; conditions: human red blood cells, read-out: Activity
[28] = Photohemolysis in human RBC assessed as concentration required to 50% hemolysis under light exposure for 10 mins; format: ADME, cell-based, Erythrocyte; conditions: human red blood cells, read-out: Activity
[29] = tested on: SiHa; assay: Survival of human SIHA cells at 1 uM under deem light after 96 hrs by MTT assay relative to control; format: functional; conditions: read-out: Survival
[30] = tested on: K562; assay: Survival of human K562 cells at 1 uM under deem light after 96 hrs by MTT assay relative to control; format: functional; conditions: K562, 96 h, read-out: Survival
[31] = tested on: Raji; assay: Survival of human Raji cells at 1 uM under deem light after 96 hrs by MTT assay relative to control; format: functional; conditions: read-out: Survival
[32] = tested on: HeLa; assay: Survival of human HeLa cells at 1 uM under deem light after 96 hrs by MTT assay relative to control; format: functional; conditions: read-out: Survival
[33] = tested on: NCI-H69; assay: Survival of human H69 cells at 1 uM under deem light after 96 hrs by MTT assay relative to control; format: functional; conditions: NCI-H69, 96 h, read-out: Survival
[34] = Survival of human H209 cells at 1 uM under deem light after 96 hrs by MTT assay relative to control; format: functional; conditions: NCI-H209, 96 h, read-out: Survival
[35] = Survival of human 2780.9S cells at 1 uM under deem light after 96 hrs by MTT assay relative to control; format: functional; conditions: read-out: Survival
[36] = Survival of human MDA-MB cells at 1 uM under deem light after 96 hrs by MTT assay relative to control; format: functional; conditions: read-out: Survival
[37] = tested on: Raji; assay: Survival of human Raji cells at 15.7 uM under deem light after 96 hrs by MTT assay relative to control; format: functional; conditions: read-out: Survival
[38] = tested on: HeLa; assay: Survival of human HeLa cells at 15.7 uM under deem light after 96 hrs by MTT assay relative to control; format: functional; conditions: read-out: Survival
[39] = tested on: NCI-H69; assay: Survival of human H69 cells at 15.7 uM under deem light after 96 hrs by MTT assay relative to control; format: functional; conditions: NCI-H69, 96 h, read-out: Survival
[40] = Survival of human H209 cells at 15.7 uM under deem light after 96 hrs by MTT assay relative to control; format: functional; conditions: NCI-H209, 96 h, read-out: Survival
[41] = Survival of human 2780.9S cells at 15.7 uM under deem light after 96 hrs by MTT assay relative to control; format: functional; conditions: read-out: Survival
[42] = Survival of human MDA-MB cells at 15.7 uM under deem light after 96 hrs by MTT assay relative to control; format: functional; conditions: read-out: Survival
[43] = tested on: K562; assay: Survival of human K562 cells at 15.7 uM under deem light after 96 hrs by MTT assay relative to control; format: functional; conditions: K562, 96 h, read-out: Survival
[44] = tested on: SiHa; assay: Survival of human SIHA cells at 50 uM under deem light after 96 hrs by MTT assay relative to control; format: functional; conditions: read-out: Survival
[45] = tested on: SiHa; assay: Survival of human SIHA cells at 100 uM under deem light after 96 hrs by MTT assay relative to control; format: functional; conditions: read-out: Survival
[46] = tested on: K562; assay: Survival of human K562 cells at 0.1 uM under deem light after 96 hrs by MTT assay relative to control; format: functional; conditions: K562, 96 h, read-out: Survival
[47] = tested on: K562; assay: Survival of human K562 cells at 50 uM under deem light after 96 hrs by MTT assay relative to control; format: functional; conditions: K562, 96 h, read-out: Survival
[48] = tested on: K562; assay: Survival of human K562 cells at 100 uM under deem light after 96 hrs by MTT assay relative to control; format: functional; conditions: K562, 96 h, read-out: Survival
[49] = tested on: Raji; assay: Survival of human Raji cells at 0.1 uM under deem light after 96 hrs by MTT assay relative to control; format: functional; conditions: read-out: Survival
[50] = tested on: Raji; assay: Survival of human Raji cells at 50 uM under deem light after 96 hrs by MTT assay relative to control; format: functional; conditions: read-out: Survival
[51] = tested on: Raji; assay: Survival of human Raji cells at 100 uM under deem light after 96 hrs by MTT assay relative to control; format: functional; conditions: read-out: Survival

Which results are given for CCCOC(C)C1=C(C)c2cc3[nH]c(cc4nc(cc5[nH]c(cc1n2)c(C)c5CCC(=O)NCCO)C(CCC(=O)NCCO)=C4C)c(C)c3C(C)OCCC (stereo unspecified) [HEMATOPORPHYRIN PROPYLETHER ETHANOLAMIDE]?
viability at 0.1 µM [1]: 99.6%; viability at 50 µM [2]: 7.4%; viability at 100 µM [3]: 10.5%; viability at 0.1 µM [4]: 95.5%; viability at 50 µM [5]: 16.1%; viability at 100 µM [6]: 14.4%; viability at 0.1 µM [7]: 97.8%; viability at 50 µM [8]: 8.6%; viability at 100 µM [9]: 9.8%; viability at 0.1 µM [10]: 106%; viability at 50 µM [11]: 12.3%; viability at 100 µM [12]: 6.5%; viability at 0.1 µM [13]: 137%; viability at 10 µM [14]: 104%; viability at 50 µM [15]: 7.4%; viability at 100 µM [16]: 5.2%; IC50 [17]: 44 µM; IC50 [18]: 21 µM; IC50 [19]: 12 µM; IC50 [20]: 22 µM; IC50 [21]: 21 µM; IC50 [22]: 22 µM; IC50 [23]: 22 µM; IC50 [24]: 16 µM; Activity [25]: Non-toxic; hemolysis at 10 min, 0.125 µM [26]: 100%; HC50 at 5 min [27]: 90 nM; HC50 at 10 min [28]: 210 nM; viability at 1 µM [29]: 100%; viability at 1 µM [30]: 84.7%; viability at 1 µM [31]: 99.5%; viability at 1 µM [32]: 119%; viability at 1 µM [33]: 97%; viability at 1 µM [34]: 105%; viability at 1 µM [35]: 100%; viability at 1 µM [36]: 112%; viability at 15.7 µM [37]: 23.6%; viability at 15.7 µM [38]: 7.8%; viability at 15.7 µM [39]: 17.1%; viability at 15.7 µM [40]: 16.1%; viability at 15.7 µM [41]: 19.3%; viability at 15.7 µM [42]: 24.3%; viability at 15.7 µM [43]: 28.5%; viability at 50 µM [44]: 2.2%; viability at 100 µM [45]: 6.7%; viability at 0.1 µM [46]: 72.9%; viability at 50 µM [47]: 5.7%; viability at 100 µM [48]: 6.67%; viability at 0.1 µM [49]: 96.1%; viability at 50 µM [50]: 5.9%; viability at 100 µM [51]: 5.4%
